These are literature values, as cited in publication PMC3616063, “Genomic and Structural Characterization of Kunitz-Type Peptide LmKTT-1a Highlights Diversity and Evolution of Scorpion Potassium Channel Toxins” (PLoS ONE, 2013).

For one series, the system named is Herg channels. The settings on record: ref [11]. The text has this:
(§1) Over the last 400 million years, scorpions have evolved many peptide toxins that target different potassium channels. Numerous potassium channel toxins have been isolated from scorpions including those identified by proteomic and transcriptome analysis of scorpion venom glands [2]–[4]. These toxins are divided into α-KTx, β-KTx, γ-KTx, and κ-KTx subfamilies based on their similarity, [6]. Some of the toxins are specific inhibitors that serve as useful pharmacological tools and candidate drugs that target various potassium channels. Examples include charybdotoxin (ChTX), ...

The next series has as its system Kv1.3. The settings on record: ref [8].
Excerpt: as §1

The next series deals with BKCa channels. The conditions noted are these: ref [8].
Excerpt: as §1

Another series concerns IKCa channels. The conditions noted are these: ref [10].
Excerpt: as §1

The next series concerns SKCa channels. The settings on record: ref [9].
Excerpt: as §1

For “BeKm-1: scorpion toxin which inhibits Herg channels (RPTDIKCSESYQCFPVCKSRFGKTNGRCVNGFCDCF; UniProt Q9BKB7 22-57, looked up)”, the Herg channel inhibition result with Herg channels is reported as “inhibits Herg channels”. Regarding charybdotoxin [charybdotoxin (ChTX)], in the series on Kv1.3, the Kv1.3 channel targeting entry is recorded as “targeted toward Kv1.3”. Further, in the series on BKCa channels, the BKCa channel targeting entry is “targeted toward Kv1.3 and BKCa channels”.

“maurotoxin (VSCTGSKDCYAPCRKQTGCPNAKCINKSCKCYGC; UniProt P80719 1-34, looked up) [maurotoxin (MTX)]”: the IKCa channel targeting result in the series with IKCa channels is “targeted toward IKCa channels”. As to “scyllatoxin (AFCNLRMCQLSCRSLGLLGKCIGDKCECVKH; UniProt P16341 1-31, looked up) [scyllatoxin (ScyTx)]”, the SKCa channel inhibition entry with SKCa channels is “inhibits SKCa channels”.
